Measurements reported in the NIST ThermoML archive (doi:10.1021/je700621d).
Numbers after ± are expanded uncertainties.

Experiments:
[1] = for mass density: Liquid, Vibrating tube method; for surface tension liquid-gas: Pendant drop shape
[2] = xn = mol fraction of the nth substance listed; conditions: 298 K; for surface tension liquid-gas: Pendant drop shape; for mass density: 101 kPa, Liquid, Vibrating tube method

In the case of `CCCCCCCC[N+](C)(CCCCCCCC)CCCCCCCC.O=S(=O)([N-]S(=O)(=O)C(F)(F)F)C(F)(F)F`, the mass density ([1]; 278.15 K, 101.33 kPa) is reported as 1119.8 ± 8.8 kg/m3, the surface tension liquid-gas ([1]; 278.75 K) is reported as 29.65 ± 0.82 mN/m and the surface tension liquid-gas ([1]; 288.15 K) is reported as 28.92 ± 0.8 mN/m. The mass density ([1]; 288.15 K, 101.33 kPa) was 1112.2 ± 8.7 kg/m3, the surface tension liquid-gas ([1]; 298.15 K) was 27.93 ± 0.77 mN/m and the mass density ([1]; 298.15 K, 101.33 kPa) was 1104.6 ± 8.5 kg/m3. It also gave a surface tension liquid-gas ([1]; 308.15 K) of 27.02 ± 0.75 mN/m, a mass density ([1]; 308.15 K, 101.33 kPa) of 1097.2 ± 8.4 kg/m3 and a surface tension liquid-gas ([1]; 318.15 K) of 26.56 ± 0.74 mN/m. The mass density ([1]; 318.15 K, 101.33 kPa) was 1089.6 ± 8.3 kg/m3, the surface tension liquid-gas ([1]; 328.15 K) was 26.03 ± 0.73 mN/m and the mass density ([1]; 328.15 K, 101.33 kPa) was 1082.1 ± 8.2 kg/m3.

Work on `CCCC[n+]1ccn(C)c1.O=S(=O)([N-]S(=O)(=O)C(F)(F)F)C(F)(F)F` yielded a mass density ([1]; 278.15 K, 101.33 kPa) of 1456.1 ± 15 kg/m3, a surface tension liquid-gas ([1]; 278.75 K) of 33.8 ± 0.92 mN/m and a surface tension liquid-gas ([1]; 288.15 K) of 33.37 ± 0.91 mN/m. For the same compound, the mass density ([1]; 288.15 K, 101.33 kPa) was 1446.2 ± 15 kg/m3, the surface tension liquid-gas ([1]; 298 K) was 32.8 ± 0.88 mN/m and the mass density ([1]; 298 K, 101.33 kPa) was 1436.4 ± 15 kg/m3. For the same compound, the surface tension liquid-gas ([1]; 298.15 K) was 32.8 ± 0.9 mN/m, the mass density ([1]; 298.15 K, 101.33 kPa) was 1436.6 ± 15 kg/m3 and the surface tension liquid-gas ([1]; 308.15 K) was 32.32 ± 0.88 mN/m. For the same compound, the mass density ([1]; 308.15 K, 101.33 kPa) was 1427 ± 14 kg/m3, the surface tension liquid-gas ([1]; 318.15 K) was 31.89 ± 0.87 mN/m and the mass density ([1]; 318.15 K, 101.33 kPa) was 1417.4 ± 14 kg/m3. It also gave a surface tension liquid-gas ([1]; 328.15 K) of 31.28 ± 0.86 mN/m and a mass density ([1]; 328.15 K, 101.33 kPa) of 1407.9 ± 14 kg/m3.

`CCn1cc[n+](C)c1.O=S(=O)([N-]S(=O)(=O)C(F)(F)F)C(F)(F)F` showed a mass density ([1]; 278.15 K, 101.33 kPa) of 1539.1 ± 17 kg/m3, a surface tension liquid-gas ([1]; 278.75 K) of 37.31 ± 1 mN/m and a surface tension liquid-gas ([1]; 288.15 K) of 36.58 ± 0.99 mN/m. It also gave a mass density ([1]; 288.15 K, 101.33 kPa) of 1528.9 ± 16 kg/m3, a surface tension liquid-gas ([1]; 298.15 K) of 35.71 ± 0.97 mN/m and a mass density ([1]; 298.15 K, 101.33 kPa) of 1518.7 ± 16 kg/m3. The surface tension liquid-gas ([1]; 308.15 K) was 35.17 ± 0.96 mN/m, the mass density ([1]; 308.15 K, 101.33 kPa) was 1508.7 ± 16 kg/m3 and the surface tension liquid-gas ([1]; 318.15 K) was 34.68 ± 0.94 mN/m. It also gave a mass density ([1]; 318.15 K, 101.33 kPa) of 1498.6 ± 16 kg/m3, a surface tension liquid-gas ([1]; 328.15 K) of 34.25 ± 0.93 mN/m and a mass density ([1]; 328.15 K, 101.33 kPa) of 1488.7 ± 16 kg/m3.

Compound `CCCC[n+]1ccn(C)c1.O=S(=O)([N-]S(=O)(=O)C(F)(F)F)C(F)(F)F` + CCCCO has a surface tension liquid-gas ([2]; x1 = 0.0941) of 23.98 ± 0.27 mN/m, a surface tension liquid-gas ([2]; x1 = 0.2025) of 23.88 ± 0.29 mN/m and a surface tension liquid-gas ([2]; x1 = 0.2045) of 23.8 ± 0.29 mN/m. It also gave a surface tension liquid-gas ([2]; x1 = 0.306) of 24.16 ± 0.33 mN/m, a surface tension liquid-gas ([2]; x1 = 0.3064) of 24.25 ± 0.33 mN/m and a surface tension liquid-gas ([2]; x1 = 0.3964) of 25.17 ± 0.37 mN/m. For the same compound, the surface tension liquid-gas ([2]; x1 = 0.5002) was 26.79 ± 0.45 mN/m, the surface tension liquid-gas ([2]; x1 = 0.5977) was 28.32 ± 0.52 mN/m and the surface tension liquid-gas ([2]; x1 = 0.6848) was 29.56 ± 0.6 mN/m. For the same compound, the surface tension liquid-gas ([2]; x1 = 0.8016) was 30.96 ± 0.7 mN/m, the surface tension liquid-gas ([2]; x1 = 0.8986) was 31.94 ± 0.79 mN/m and the surface tension liquid-gas ([2]; x1 = 1) was 32.8 ± 0.88 mN/m. For the same compound, the mass density ([2]; x1 = 0.0941) was 962.2 ± 0.2 kg/m3, the mass density ([2]; x1 = 0.2025) was 1087.1 ± 0.5 kg/m3 and the mass density ([2]; x1 = 0.2045) was 1089 ± 0.5 kg/m3. For the same compound, the mass density ([2]; x1 = 0.306) was 1172.6 ± 1.1 kg/m3, the mass density ([2]; x1 = 0.3064) was 1172.5 ± 1.1 kg/m3 and the mass density ([2]; x1 = 0.3964) was 1230.5 ± 1.8 kg/m3. For the same compound, the mass density ([2]; x1 = 0.5002) was 1283.6 ± 3 kg/m3, the mass density ([2]; x1 = 0.5977) was 1323.5 ± 4.5 kg/m3 and the mass density ([2]; x1 = 0.6848) was 1354.8 ± 6.1 kg/m3. It also gave a mass density ([2]; x1 = 0.8016) of 1388.6 ± 8.7 kg/m3, a mass density ([2]; x1 = 0.8986) of 1413.4 ± 11 kg/m3 and a mass density ([2]; x1 = 1) of 1436.4 ± 14 kg/m3.

Compound `CCCC[n+]1ccn(C)c1.O=S(=O)([N-]S(=O)(=O)C(F)(F)F)C(F)(F)F` + CCCO has a surface tension liquid-gas ([2]; x1 = 0.035) of 23.6 ± 0.26 mN/m, a surface tension liquid-gas ([2]; x1 = 0.131) of 24.16 ± 0.28 mN/m and a surface tension liquid-gas ([2]; x1 = 0.202) of 24.73 ± 0.3 mN/m. For the same compound, the surface tension liquid-gas ([2]; x1 = 0.296) was 25.77 ± 0.34 mN/m, the surface tension liquid-gas ([2]; x1 = 0.373) was 26.47 ± 0.38 mN/m and the surface tension liquid-gas ([2]; x1 = 0.517) was 28.6 ± 0.48 mN/m. It also gave a surface tension liquid-gas ([2]; x1 = 0.664) of 29.89 ± 0.59 mN/m, a surface tension liquid-gas ([2]; x1 = 0.685) of 30.54 ± 0.61 mN/m and a surface tension liquid-gas ([2]; x1 = 0.884) of 32.49 ± 0.79 mN/m. The surface tension liquid-gas ([2]; x1 = 1) was 32.8 ± 0.88 mN/m, the mass density ([2]; x1 = 0.035) was 878.2 ± 0.1 kg/m3 and the mass density ([2]; x1 = 0.131) was 1036.2 ± 0.3 kg/m3. It also gave a mass density ([2]; x1 = 0.202) of 1116.5 ± 0.5 kg/m3, a mass density ([2]; x1 = 0.296) of 1194.1 ± 1 kg/m3 and a mass density ([2]; x1 = 0.373) of 1243.5 ± 1.7 kg/m3. For the same compound, the mass density ([2]; x1 = 0.517) was 1311.8 ± 3.4 kg/m3, the mass density ([2]; x1 = 0.664) was 1361.9 ± 5.8 kg/m3 and the mass density ([2]; x1 = 0.685) was 1368 ± 6.2 kg/m3. For the same compound, the mass density ([2]; x1 = 0.884) was 1422 ± 11 kg/m3 and the mass density ([2]; x1 = 1) was 1436.4 ± 14 kg/m3.

`CCCCCCCCOS(=O)(=O)[O-].CCCCn1cc[n+](C)c1` [1-butyl-3-methylimidazolium octyl sulfate] showed a mass density ([1]; 278.15 K, 101.33 kPa) of 1077.3 ± 8.1 kg/m3, a surface tension liquid-gas ([1]; 278.75 K) of 28.08 ± 0.78 mN/m and a surface tension liquid-gas ([1]; 288.15 K) of 27.29 ± 0.76 mN/m. For the same compound, the mass density ([1]; 288.15 K, 101.33 kPa) was 1070.4 ± 8 kg/m3, the surface tension liquid-gas ([1]; 298.15 K) was 26.71 ± 0.74 mN/m and the mass density ([1]; 298.15 K, 101.33 kPa) was 1063.8 ± 7.9 kg/m3. For the same compound, the surface tension liquid-gas ([1]; 308.15 K) was 26.27 ± 0.73 mN/m, the mass density ([1]; 308.15 K, 101.33 kPa) was 1057.1 ± 7.8 kg/m3 and the surface tension liquid-gas ([1]; 318.15 K) was 25.72 ± 0.72 mN/m. The mass density ([1]; 318.15 K, 101.33 kPa) was 1050.8 ± 7.7 kg/m3, the surface tension liquid-gas ([1]; 328.15 K) was 24.99 ± 0.7 mN/m and the mass density ([1]; 328.15 K, 101.33 kPa) was 1044.3 ± 7.6 kg/m3.

Work on `CCOS(=O)(=O)[O-].CCn1cc[n+](C)c1` [1-ethyl-3-methylimidazolium ethyl sulfate] yielded a mass density ([1]; 278.15 K, 101.33 kPa) of 1255.1 ± 11 kg/m3, a surface tension liquid-gas ([1]; 278.75 K) of 46.7 ± 1.2 mN/m and a surface tension liquid-gas ([1]; 288.15 K) of 46.04 ± 1.2 mN/m. It also gave a mass density ([1]; 288.15 K, 101.33 kPa) of 1248.1 ± 11 kg/m3, a surface tension liquid-gas ([1]; 298.15 K) of 45.43 ± 1.2 mN/m and a mass density ([1]; 298.15 K, 101.33 kPa) of 1241.1 ± 11 kg/m3. For the same compound, the surface tension liquid-gas ([1]; 308.15 K) was 44.72 ± 1.2 mN/m, the mass density ([1]; 308.15 K, 101.33 kPa) was 1234.2 ± 11 kg/m3 and the surface tension liquid-gas ([1]; 318.15 K) was 43.74 ± 1.2 mN/m. The mass density ([1]; 318.15 K, 101.33 kPa) was 1227.3 ± 11 kg/m3, the surface tension liquid-gas ([1]; 328.15 K) was 43.37 ± 1.2 mN/m and the mass density ([1]; 328.15 K, 101.33 kPa) was 1220.6 ± 10 kg/m3.

Compound `CCCCO` [butan-1-ol] has a surface tension liquid-gas ([1]; 298 K) of 23.96 ± 0.26 mN/m and a mass density ([1]; 298 K, 101.3 kPa) of 805.3 ± 0.2 kg/m3.

Work on `CCCCO` [butan-1-ol] + CCCC[n+]1ccn(C)c1.O=S(=O)([N-]S(=O)(=O)C(F)(F)F)C(F)(F)F yielded a surface tension liquid-gas ([2]; x2 = 0) of 23.96 ± 0.26 mN/m and a mass density ([2]; x2 = 0) of 805.3 ± 0.2 kg/m3.

With `CCCC[N+](C)(C)C.O=S(=O)([N-]S(=O)(=O)C(F)(F)F)C(F)(F)F` [butyltrimethylammonium bis(trifluoromethylsulfonyl)imide] the mass density ([1]; 278.15 K, 101.33 kPa) was 1412.3 ± 14 kg/m3, the surface tension liquid-gas ([1]; 278.75 K) was 33.31 ± 0.91 mN/m and the surface tension liquid-gas ([1]; 288.15 K) was 33.04 ± 0.9 mN/m. The mass density ([1]; 288.15 K, 101.33 kPa) was 1403 ± 14 kg/m3, the surface tension liquid-gas ([1]; 298.15 K) was 32.46 ± 0.89 mN/m and the mass density ([1]; 298.15 K, 101.33 kPa) was 1394 ± 14 kg/m3. The surface tension liquid-gas ([1]; 308.15 K) was 32 ± 0.88 mN/m, the mass density ([1]; 308.15 K, 101.33 kPa) was 1385 ± 14 kg/m3 and the surface tension liquid-gas ([1]; 318.15 K) was 31.21 ± 0.86 mN/m. It also gave a mass density ([1]; 318.15 K, 101.33 kPa) of 1376.1 ± 13 kg/m3, a surface tension liquid-gas ([1]; 328.15 K) of 30.64 ± 0.84 mN/m and a mass density ([1]; 328.15 K, 101.33 kPa) of 1367.3 ± 13 kg/m3.

For `CCCO` [propan-1-ol], the surface tension liquid-gas ([1]; 298 K) was 23.34 ± 0.26 mN/m and the mass density ([1]; 298 K, 101.3 kPa) was 799 ± 0.2 kg/m3.

Compound `CCCO` [propan-1-ol] + CCCC[n+]1ccn(C)c1.O=S(=O)([N-]S(=O)(=O)C(F)(F)F)C(F)(F)F has a surface tension liquid-gas ([2]; x2 = 0) of 23.34 ± 0.26 mN/m and a mass density ([2]; x2 = 0) of 799 ± 0.2 kg/m3.
